Measurements taken from patent US11690824B2, “Antibacterial compounds” (THE GENERAL HOSPITAL CORPORATION, priority 2018, dated 2023).
Converted amounts (≈) assume the structure as drawn.

Experiments:
[1] = system: vancomycin-resistant Enterococcus faecium strains; assay: MIC against vancomycin-resistant strains; type: cell-based
From the text: (§1) Bacterial strains, growth conditions, and persister isolation. Methicillin-resistant S. aureus strains, MW2 BAA-1707, ATCC 33591, and JE2, methicillin-susceptible S. aureus strains, NCTC 8325, Newman, and ATCC 29213, vancomycin-resistant S. aureus strain, VRS1, Enterococcus faecium E007, vancomycin-resistant E. faecium strains, C68,^7 WB312, and WC196, Klebsiella pneumoniae WGLW2 (BEI Resources, Manassas, Va., USA), Acinetobacter baumannii ATCC 17978, Pseudomonas aeruginosa PA14, and Enterobacter aerogenes ATCC 13048 were used to test antimicrobial activity (Table 1). S. aureus strains were grown in tryptic soy broth (TSB) (BD, Franklin Lakes, N.J., USA), and E. faecium was grown in brain-heart infusion (BHI) broth (BD, Franklin Lakes, N.J., USA) at 37° C. K. pneumoniae, A. baumannii, P. aeruginosa, and E. aerogenes were grown in Luria Bertani (LB) broth (BD, Franklin Lakes, N.J., USA) at 37° C.
(§2) Minimal inhibitory concentration (MIC) assay. The MICS of antibiotics were determined by the standard micro-dilution method recommended by the Clinical and Laboratory Standards Institute. MIC assays were conducted in biological triplicate.

[2] = system: exponential-phase MRSA MW2; assay: Killing kinetics assay; type: cell-based, S. aureus; settings: 16 μg/ml (4× MIC), ~10^7 CFU/mL
Method: Killing kinetics assay. An MRSA MW2 overnight culture was diluted 1:10,000 in 25 mL TSB (˜10^5 CFU/mL) in a 250 mL flask and incubated at 37° C. with shaking at 200 rpm for 4.5 h until it reached exponential-phase (˜2×10^7 CFU/mL). 1 mL of the exponential phase cell culture was mixed with 1 mL of pre-warmed TSB containing twice the desired concentrations of antibiotics in a 96-well assay block (Corning Costar 3960). The assay block was incubated at 37° C. with shaking at 200 rpm. At every hour, 400 μl aliquots were taken, washed once with phosphate buffered saline (PBS), serially diluted and spot-plated onto tryptic soy agar (TSA, BD) plates. After incubation at 37° C. for overnight, colonies were counted to enumerate the number of cells. These experiments were conducted in biological triplicate.

E. faecium C68 = assay: MIC assay; type: cell-based, Enterococcus faecium; settings: Enterococcus faecium; E. faecium C68; read-out: Minimum inhibitory concentration
From the text: as §1, §2

E.faecium E007 = assay: MIC assay; type: cell-based, Enterococcus faecium; settings: Enterococcus faecium; E.faecium E007; read-out: Minimum inhibitory concentration
From the text: as §1, §2

E. faecium WC196 = assay: MIC assay; type: cell-based, Enterococcus faecium; settings: Enterococcus faecium; E. faecium WC196; read-out: Minimum inhibitory concentration
From the text: as §1, §2

E. faecium WB312 = assay: MIC assay; type: cell-based, Enterococcus faecium; settings: Enterococcus faecium; E. faecium WB312; read-out: Minimum inhibitory concentration
From the text: as §1, §2

GUVs DOPC/DOPG (7:3) = assay: Giant unilamellar vesicles (GUVs), observation of compound effects; settings: 4 μg/ml (1× MIC)
Method: Preparation of giant unilamellar vesicles (GUVs) and observation of compound effects on GUVs. GUVs were prepared by the electroformation method described previously. Dioleoyl-glycero-phosphocholine (DOPC), Dioleoyl-glycero-phosphoglycerol (DOPG) and Dioleoyl-glycero-phosphoethanolamine-N-lissamine rhodamine B sulfonyl (18:1 Liss Rhod PE) were purchased from Avanti Polar Lipids (Alabaster, Ala., USA). 4 mM of a lipid mixture consisting of DOPC/DOPG/18:1 Liss Rhod PE (7:3:0.005) was dissolved in chloroform. Indium tin oxide (ITO)-coated slides (50×75×1.1 mm, Delta Technologies, Loveland, Colo., USA) were coated with 40 μL of the lipid mixture and dried in a vacuum chamber for 2 h to remove chloroform. An electroformation chamber was made by placing a 2 mm thick Teflon spacer between the two lipid-coated ITO slides. After adding 2 mL of 100 mM sucrose into the electrofomation chamber, the chamber was sealed with binder clips, and then connected to an AC field function generator. The swelling of the lipid bilayers was facilitated by applying an electric AC-field (10 Hz). […] GUVs were detached from surfaces by reducing the AC-field from 10 Hz to 5 Hz for 20 min. The GUV suspension was diluted (1:30) in a 100 mM glucose solution. 49 μL of the diluted GUV suspension (˜100 vesicles) was added to a black, clear-bottom 384-well plate (Corning no. 3712). […]

Gram-negative bacteria = assay: MIC against Gram-negative bacteria; type: cell-based
From the text: as §1, §2

[3] = system: S. aureus and Enterococcus faecium clinical strains; assay: MIC against a panel of clinical strains; type: cell-based; settings: panel incl. multidrug-resistant MW2 and VRS1; read-out: minimal inhibitory concentration (MIC)
From the text: as §1, §2

A. baumannii ATCC 17978 = assay: MIC assay; type: cell-based, Acinetobacter baumannii; settings: Acinetobacter baumannii, ATCC17978; A. baumannii ATCC 17978; read-out: Minimum inhibitory concentration
From the text: as §1, §2

MRSA MW2 biofilms = assay: Biofilm persister killing assay; type: cell-based, S. aureus; settings: 16 μg/ml nTZDpa combined with 10 μg/ml gentamicin, 24 h
Method: Biofilm persister killing assay. An overnight culture of cells was diluted 1:200 with TSB supplemented with 0.2% glucose and 3% NaCl. A 13 mm-diameter Millipore mixed cellulose ester membrane (EMD Millipore GSWP01300) was placed at the bottom of each well of a 12-well plate (Falcon 353043). 1 mL of the diluted culture was added to each well and incubated statically at 37° C. for 24 h. The membranes were washed 3-times with PBS and transferred to a fresh 12-well plate. 1 mL of PBS containing the desired concentration of antibiotics was added to each well, and then the plate was incubated statically at 37° C. for 24 h. The membranes were washed 3 times with PBS, placed in 2-mL microcentrifuge tubes containing 1 mL PBS, and sonicated in an ultrasonic bath (Fisher Scientific FS 30) for 10 min. The sonicated samples were serially diluted and spot-plated on TSA to enumerate the number of live cells. The experiment was conducted in biological triplicate.

P. aeruginosa PA14 = assay: MIC assay; type: cell-based, Pseudomonas aeruginosa; settings: Pseudomonas aeruginosa; P. aeruginosa PA14; read-out: Minimum inhibitory concentration
From the text: as §1, §2

With O=C(O)c1c(Sc2ccccc2)c2cc(Cl)ccc2n1Cc1ccc(Cl)cc1 [nTZDpa] the MIC [1] was 4 µg/mL (≈ 9.34 µM), the “time to complete eradication of exponential-phase MRSA MW2” value [2] was no more than 2 h and the MIC (E. faecium C68) was 4 µg/mL (≈ 9.34 µM). For the same compound, the MIC (E.faecium E007) was 4 µg/mL (≈ 9.34 µM), the MIC (E. faecium WC196) was 4 µg/mL (≈ 9.34 µM) and the MIC (E. faecium WB312) was 4 µg/mL (≈ 9.34 µM). For the same compound, the “time to formation of lipid aggregates on the surface of GUVs” value (GUVs DOPC/DOPG (7:3)) was 10 s, the “time to rupture of GUVs” value (GUVs DOPC/DOPG (7:3)) was 60 s and the “antimicrobial activity against Gram-negative bacteria” value (Gram-negative bacteria) was “not effective against Gram-negative bacteria”. For the same compound, the MIC [3] was roughly 4 µg/mL (≈ 9.34 µM), the MIC (A. baumannii ATCC 17978) was greater than 64 µg/mL and the “MRSA persisters formed in biofilms” value (MRSA MW2 biofilms) was “completely eradicated MRSA persisters formed in biofilms”. The MIC (P. aeruginosa PA14) was greater than 64 µg/mL.
